Results as given in patent US20040175782A1, “Biotransformation of compounds using non-prokaryotic microalgae” (TETHYS RESEARCH LLC, priority 2003, published 2004).

Columns and labels:
[1] = system: Platymonas; test: growth (cell counts) of microalgae in the presence of precursor compound; type: cell-based, Platymonas sp.; details: 100 μg/ml, cell counts on days 0, 2, 4 and 7, relative to growth controls
Experimental: (§1) Three 15 ml cultures of each of the microalgae listed in Table III above were grown in 30 ml flasks. Growth control cultures contained algae and medium only. Growth control cultures in the presence of solvent contained algae, medium, and 0.06 ml of methanol, the solvent chosen for the precursor compound. Experimental cultures contained algae, medium, and 0.06 ml of a 25 mg/ml solution of (S)-(−)-3-(Benzyloxycarbonyl)-4-oxazolidinecarboxylic acid (precursor compound) dissolved in methanol, yielding a final concentration of 100 μg/ml. Cell counts were performed using a haemocytometer on days 0, 2, 4 and 7.

[2] = system: Chlorella; test: as above; type: cell-based, Chlorella minutisima; details: 100 μg/ml, cell counts on days 0, 2, 4 and 7, relative to growth controls
Experimental: as §1
as §1, with “VIII” for “III”, “Precursor 2.” for “the precursor compound.”, “tert-butyl[S-(R*-R*)]-(−)-(1-oxiranyl-2-phenylethylcarbamate)” for “(S)-(−)-3-(Benzyloxycarbonyl)-4-oxazolidinecarboxylic acid”, “concentration in the culture medium” for “concentration”

[3] = system: Botrydium; test: as above; type: cell-based; details: 100 μg/ml, cell counts on days 0, 2, 4 and 7, relative to growth controls
Experimental: as §1

[4] = system: Chlamydomonas; test: as above; type: cell-based, Chlamydomonas reinhardtii; details: 100 μg/ml, cell counts on days 0, 2, 4 and 7, relative to growth controls
Experimental: as §1

[5] = system: Phaeodactylum; test: as above; type: cell-based, Phaeodactylum tricornutum; details: 100 μg/ml, cell counts on days 0, 2, 4 and 7, relative to growth controls
Experimental: as §1
as §1, with “VIII” for “III”, “Precursor 2.” for “the precursor compound.”, “tert-butyl[S-(R*-R*)]-(−)-(1-oxiranyl-2-phenylethylcarbamate)” for “(S)-(−)-3-(Benzyloxycarbonyl)-4-oxazolidinecarboxylic acid”, “concentration in the culture medium” for “concentration”

[6] = system: Chlamydomonas reinhardtii; test: final biotransformation culture, 7 days in the presence of precursor; type: cell-based; details: 200 μg/ml precursor, starting cell concentration 2.2 × 10^7
Experimental: (§2) Table V below lists each microalgae in the final panel, its starting cell concentration, the concentration of precursor compound in the growth medium, the starting and final cell count, and the method of separation of the resulting biomass from the culture supernatant. The final panel of algal strains were grown for 7 days under the conditions listed in Table III above in the presence of the precursor compound prior to separation of the resulting biomass from the culture supernatant. Cell counts were not determined in every case for the strains listed in Table V. Table X below lists each microalgae in the final panel, its starting cell concentration, the concentration of precursor compound in the growth medium, the starting and final cell count, and the method of separation of the resulting biomass from the culture supernatant. The final panel of algal strains was grown for 7 days under the conditions listed in Table VIII above in the presence of Precursor 2 prior to separation of the resulting biomass from the culture supernatant.

[7] = system: Chlorella minutisima; test: as above; type: cell-based; details: 100 μg/ml precursor, starting cell concentration 1.52 × 10^6
Experimental: as §2

[8] = system: Cryptomonas ovata; test: as above; type: cell-based; details: 200 μg/ml precursor, starting cell concentration not determined
Experimental: as §2

[9] = system: Euglena gracilis; test: as above; type: cell-based; details: 100 μg/ml precursor, starting cell concentration not determined
Experimental: as §2

[10] = system: Olithodiscus sp.; test: as above; type: cell-based; details: 50 μg/ml precursor, starting cell concentration 1.09 × 10^6
Experimental: as §2

[11] = system: Phaeodactylum tricornutum; test: as above; type: cell-based; details: 200 μg/ml precursor, starting cell concentration 1.18 × 10^6
Experimental: as §2

[12] = system: Scenedesmus obliquus; test: as above; type: cell-based; details: 200 μg/ml precursor, starting cell concentration 6.38 × 10^6
Experimental: as §2

[13] = system: Chloromonas rosae; test: as above; type: cell-based; details: 100 μg/ml precursor, starting cell concentration 1.75 × 10^5
Experimental: (§3) Table V below lists each microalgae in the final panel, its starting cell concentration, the concentration of precursor compound in the growth medium, the starting and final cell count, and the method of separation of the resulting biomass from the culture supernatant. The final panel of algal strains were grown for 7 days under the conditions listed in Table III above in the presence of the precursor compound prior to separation of the resulting biomass from the culture supernatant.

[14] = system: Cryptocrysis rubens; test: as above; type: cell-based; details: 200 μg/ml precursor, starting cell concentration not determined
Experimental: as §3

[15] = system: Moromastix sp.; test: as above; type: cell-based; details: 200 μg/ml precursor, starting cell concentration 6.16 × 10^5
Experimental: as §3

O=C(O)[C@@H]1COCN1C(=O)OCc1ccccc1 [precursor compound, (S)-(−)-3-(Benzyloxycarbonyl)-4-oxazolidinecarboxylic acid]
effect on growth of Platymonas [1]: causing cell death
effect on growth of Chlorella [2]: increased growth relative to the growth controls
effect on growth of Chlorella ([2]; listed as Precursor 2 used in Example 1): negatively affected
effect on growth of Botrydium [3]: increased growth relative to the growth controls
effect on growth of Chlamydomonas [4]: moderate, but not severe decreases in growth relative to the growth controls
effect on growth of Phaeodactylum [5]: moderate, but not severe decreases in growth relative to the growth controls
Final Cell Concentration [6]: 1.58 × 10^9
Final Cell Concentration [7]: 1.08 × 10^7
Final Cell Concentration [8]: 1.3 × 10^5
Final Cell Concentration [9]: 6.6 × 10^5
Final Cell Concentration [10]: 1.3 × 10^6
Final Cell Concentration [11]: 4.08 × 10^6
Final Cell Concentration [12]: 2.12 × 10^7
Final Cell Concentration [13]: 1.13 × 10^6
Final Cell Concentration [14]: 3.09 × 10^6
Final Cell Concentration [15]: 7.4 × 10^5
